This note sets out measurements from patent publication US20180148418A1, “AMIDO-SUBSTITUTED CYCLOHEXANE DERIVATIVES” (Bayer Pharma Aktiengesellschaft, priority 2015, published 2018).

Broadly, the IC50 is the concentration that inhibits the measured activity by half. A high value points to weaker potency in that assay.

In the experiment the target is T1, TNKS2 (Homo sapiens, UniProt Q9H2K2).
T1 construct: purchased BPS Bioscience, San Diego, USA 80572 (TNKS2 Histone Ribosylation Assay Kit)
T1 sequence (Q9H2K2 1-1166): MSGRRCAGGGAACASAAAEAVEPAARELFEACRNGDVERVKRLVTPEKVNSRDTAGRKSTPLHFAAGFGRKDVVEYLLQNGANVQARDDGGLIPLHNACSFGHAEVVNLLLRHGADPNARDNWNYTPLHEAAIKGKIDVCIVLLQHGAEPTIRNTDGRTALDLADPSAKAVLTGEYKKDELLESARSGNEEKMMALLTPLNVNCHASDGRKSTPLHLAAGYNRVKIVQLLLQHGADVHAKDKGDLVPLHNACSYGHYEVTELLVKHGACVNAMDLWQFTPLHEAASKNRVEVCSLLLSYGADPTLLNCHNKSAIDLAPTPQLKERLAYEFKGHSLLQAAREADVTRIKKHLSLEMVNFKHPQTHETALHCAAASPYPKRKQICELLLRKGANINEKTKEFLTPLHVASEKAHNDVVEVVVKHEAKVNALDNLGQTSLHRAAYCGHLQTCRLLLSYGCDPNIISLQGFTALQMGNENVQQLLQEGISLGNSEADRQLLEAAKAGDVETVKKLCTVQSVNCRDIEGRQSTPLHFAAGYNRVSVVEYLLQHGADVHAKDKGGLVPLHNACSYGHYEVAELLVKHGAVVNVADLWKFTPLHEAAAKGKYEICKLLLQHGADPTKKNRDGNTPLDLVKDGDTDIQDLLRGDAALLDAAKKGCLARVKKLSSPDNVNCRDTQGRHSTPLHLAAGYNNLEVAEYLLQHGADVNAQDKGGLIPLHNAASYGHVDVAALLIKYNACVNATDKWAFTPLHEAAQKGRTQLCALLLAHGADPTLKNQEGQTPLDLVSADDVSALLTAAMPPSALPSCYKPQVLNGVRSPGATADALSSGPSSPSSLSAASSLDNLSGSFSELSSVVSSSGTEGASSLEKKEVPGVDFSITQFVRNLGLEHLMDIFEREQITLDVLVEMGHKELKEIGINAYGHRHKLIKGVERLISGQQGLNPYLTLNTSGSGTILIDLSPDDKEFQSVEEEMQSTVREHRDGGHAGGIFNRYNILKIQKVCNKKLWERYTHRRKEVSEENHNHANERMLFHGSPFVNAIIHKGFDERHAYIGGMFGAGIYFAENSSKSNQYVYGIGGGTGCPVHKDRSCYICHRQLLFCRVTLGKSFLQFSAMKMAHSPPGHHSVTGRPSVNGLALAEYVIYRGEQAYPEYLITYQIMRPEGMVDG
As to the kind of experiment: TNKS2 Assay B (auto-parsylation, [3H]-NAD+ SPA). Format: biochemical. To be noted: 6 nM TNKS2, auto-parsylation, over night at room temperature.

On to `O=C(NC1CCC2(CC1)CCN(c1cc(F)c(F)cc1Cl)C2=O)c1cnn2cccnc12` (single isomer, unassigned; isomer 1) [Example 168, N-[2-(2-chloro-4,5-difluorophenyl)-1-oxo-2-azaspiro[4.5]dec-8-yl]pyrazolo[1,5-a]pyrimidine-3-carboxamide (isomer 1)], for which it took 3.1 nM to reach half-maximal inhibition (IC50). For the compound `CNC(=O)c1nc[nH]c1C(=O)N[C@H]1CC[C@H](C(=O)Nc2cccnc2Cl)CC1` [Example 10, N^5-{trans-4-[(2-chloropyridin-3-yl)carbamoyl]cyclohexyl}-N^4-methyl-1H-imidazole-4,5-dicarboxamide], the IC50 is 240 nM.

Regarding `CNC(=O)c1nc[nH]c1C(=O)N[C@H]1CC[C@H](C(=O)Nc2ccncc2Cl)CC1` [Example 11, N^5-{trans-4-[(3-chloropyridin-4-yl)carbamoyl]cyclohexyl}-N^4-methyl-1H-imidazole-4,5-dicarboxamide], the IC50 amounted to 210 nM.

Regarding `CC1CCN(CCNC(=O)c2nc[nH]c2C(=O)N[C@H]2CC[C@H](C(=O)Nc3ccc(F)cc3Cl)CC2)CC1` [Example 12, N^5-{trans-4-[(2-chloro-4-fluorophenyl)carbamoyl]cyclohexyl}-N^4-[2-(4-methylpiperidin-1-yl)ethyl]-1H-imidazole-4,5-dicarboxamide], the 50% inhibitory concentration (IC50) came out at 7.2 nM. `O=C(NCCN1CCOCC1)c1nc[nH]c1C(=O)N[C@H]1CC[C@H](C(=O)Nc2ccc(F)cc2Cl)CC1` [Example 13, N^5-{trans-4-[(2-chloro-4-fluorophenyl)carbamoyl]cyclohexyl}-N^4-[2-(morpholin-4-yl)ethyl]-1H-imidazole-4,5-dicarboxamide] had an IC50 of 19 nM.

On to `O=C(N[C@H]1CC[C@H](C(=O)Nc2ccc(F)cc2Cl)CC1)c1[nH]cnc1C(=O)N1CC2(COC2)C1` [Example 14, N-{trans-4-[(2-chloro-4-fluorophenyl)carbamoyl]cyclohexyl}-4-(2-oxa-6-azaspiro[3.3]hept-6-ylcarbonyl)-1H-imidazole-5-carboxamide], for which the midpoint of inhibition, the IC50, lay at 37 nM.

Compound `CCNC(=O)c1nc[nH]c1C(=O)N[C@H]1CC[C@H](C(=O)Nc2ccc(F)cc2Cl)CC1` [Example 15, N^5-{trans-4-[(2-chloro-4-fluorophenyl)carbamoyl]cyclohexyl}-N^4-ethyl-1H-imidazole-4,5-dicarboxamide] came in with a half-maximal inhibitory concentration (IC50) of 42 nM. With `CN(C)C(=O)c1nc[nH]c1C(=O)N[C@H]1CC[C@H](C(=O)Nc2ccc(F)cc2Cl)CC1` [Example 16, N^5-{trans-4-[(2-chloro-4-fluorophenyl)carbamoyl]cyclohexyl}-N^4,N^4-dimethyl-1H-imidazole-4,5-dicarboxamide], the IC50 was found to be 1200 nM. Regarding `O=C(NC1CC1)c1nc[nH]c1C(=O)N[C@H]1CC[C@H](C(=O)Nc2ccc(F)cc2Cl)CC1` [Example 17, N^5-{trans-4-[(2-chloro-4-fluorophenyl)carbamoyl]cyclohexyl}-N^4-cyclopropyl-1H-imidazole-4,5-dicarboxamide], the IC50 worked out at 90 nM.

Take `O=C(NCCO)c1nc[nH]c1C(=O)N[C@H]1CC[C@H](C(=O)Nc2ccc(F)cc2Cl)CC1` [Example 18, N^5-{trans-4-[(2-chloro-4-fluorophenyl)carbamoyl]cyclohexyl}-N^4-(2-hydroxyethyl)-1H-imidazole-4,5-dicarboxamide]: 120 nM corresponded to half-maximal inhibition (IC50).

In the case of `COCCNC(=O)c1nc[nH]c1C(=O)N[C@H]1CC[C@H](C(=O)Nc2ccc(F)cc2Cl)CC1` [Example 19, N^5-{trans-4-[(2-chloro-4-fluorophenyl)carbamoyl]cyclohexyl}-N^4-(2-methoxyethyl)-1H-imidazole-4,5-dicarboxamide], half-maximal inhibition (IC50) was put at 160 nM. `CC(C)NC(=O)c1nc[nH]c1C(=O)N[C@H]1CC[C@H](C(=O)Nc2ccc(F)cc2Cl)CC1` [Example 20, N^5-{trans-4-[(2-chloro-4-fluorophenyl)carbamoyl]cyclohexyl}-N^4-isopropyl-1H-imidazole-4,5-dicarboxamide]: the IC50 was found to be 130 nM.

For `O=C(NCC(F)(F)F)c1nc[nH]c1C(=O)N[C@H]1CC[C@H](C(=O)Nc2ccc(F)cc2Cl)CC1` [Example 21, N^5-{trans-4-[(2-chloro-4-fluorophenyl)carbamoyl]cyclohexyl}-N^4-(2,2,2-trifluoroethyl)-1H-imidazole-4,5-dicarboxamide], the IC50 came to 83 nM. `O=C(N[C@H]1CC[C@@]2(CCN(c3ccc(F)cc3Cl)C2=O)CC1)c1[nH]cnc1C(=O)N1CCN(CC(F)(F)F)CC1` [Example 167, N-[(trans)-2-(2-chloro-4-fluorophenyl)-1-oxo-2-azaspiro[4.5]dec-8-yl]-4-{[4-(2,2,2-trifluoroethyl)piperazin-1-yl]carbonyl}-1H-imidazole-5-carboxamide] displayed an IC50 of 270 nM.

In the case of `Cc1cc(C)n2ncc(C(=O)N[C@H]3CC[C@H](C(=O)Nc4cnccc4Cl)CC3)c2n1` [Example 169, N-{trans-4-[(4-chloropyridin-3-yl)carbamoyl]cyclohexyl}-5,7-dimethylpyrazolo[1,5-a]pyrimidine-3-carboxamide], the IC50 was 14 nM. The same measure for `CNC(=O)c1nc[nH]c1C(=O)N[C@H]1CC[C@H](C(=O)Nc2cc(C(C)(C)O)ccc2Cl)CC1` [Example 170, N^5-(trans-4-{[2-chloro-5-(2-hydroxypropan-2-yl)phenyl]carbamoyl}cyclohexyl)-N^4-methyl-1H-imidazole-4,5-dicarboxamide]: 1500 nM; for `CNC(=O)c1nc[nH]c1C(=O)N[C@H]1CC[C@H](C(=O)N(C)c2ccccc2)CC1` [Example 171, N^4-methyl-N^5-{trans-4-[methyl(phenyl)carbamoyl]cyclohexyl}-1H-imidazole-4,5-dicarboxamide]: 150 nM; for `CNC(=O)c1nc[nH]c1C(=O)N[C@H]1CC[C@H](C(=O)N(C)c2ccc(F)cc2)CC1` [Example 172, N^5-{trans-4-[(4-fluorophenyl)(methyl)carbamoyl]cyclohexyl}-N^4-methyl-1H-imidazole-4,5-dicarboxamide]: 510 nM. In the case of `CNC(=O)c1nc[nH]c1C(=O)N[C@H]1CC[C@H](C(=O)N(C)c2ccc(F)cc2Cl)CC1` [Example 173, N^5-{trans-4-[(2-chloro-4-fluorophenyl)(methyl)carbamoyl]cyclohexyl}-N^4-methyl-1H-imidazole-4,5-dicarboxamide], the IC50 stood at 180 nM. The compound `Cc1cc(N(C)C(=O)[C@H]2CC[C@H](NC(=O)c3cnn4cccnc34)CC2)c(Cl)cc1F` [Example 176, N-{trans-4-[(2-chloro-4-fluoro-5-methylphenyl)(methyl)carbamoyl]cyclohexyl}pyrazolo[1,5-a]pyrimidine-3-carboxamide] came in with a half-inhibitory concentration (IC50) of 130 nM.

As to `O=C(N[C@H]1CC[C@H](C(=O)N(CC2CC2)c2ccc(F)cc2Cl)CC1)c1cnn2cccnc12` [Example 177, N-{trans-4-[(2-chloro-4-fluorophenyl)(cyclopropylmethyl)carbamoyl]cyclohexyl}pyrazolo[1,5-a]pyrimidine-3-carboxamide], half-maximal inhibition (IC50) required 9.2 nM. The same measure for `Cc1ccccc1N(C)C(=O)[C@H]1CC[C@H](NC(=O)c2cnn3cccnc23)CC1` [Example 178, N-{trans-4-[methyl(2-methylphenyl)carbamoyl]cyclohexyl}pyrazolo[1,5-a]pyrimidine-3-carboxamide]: 230 nM. Compound `C[C@]1(C(=O)Nc2ccc(F)cc2Cl)CC[C@H](NC(=O)c2cnn3cccnc23)CC1` [Example 179, N-{trans-4-[(2-chloro-4-fluorophenyl)carbamoyl]-4-methylcyclohexyl}pyrazolo[1,5-a]pyrimidine-3-carboxamide] showed an IC50 of 330 nM. The same measure for `C[C@]1(C(=O)Nc2ccc(F)cc2Cl)CC[C@@H](NC(=O)c2cnn3cccnc23)CC1` [Example 180, N-{cis-4-[(2-chloro-4-fluorophenyl)carbamoyl]-4-methylcyclohexyl}pyrazolo[1,5-a]pyrimidine-3-carboxamide]: greater than 10000 nM; for `CNC(=O)c1[nH]cnc1C(=O)N[C@H]1CC[C@@](C)(C(=O)Nc2ccc(F)cc2Cl)CC1` [Example 181, N^4-{cis-4-[(2-chloro-4-fluorophenyl)carbamoyl]-4-methylcyclohexyl}-N^5-methyl-1H-imidazole-4,5-dicarboxamide]: greater than 10000 nM.
